Measurements taken from US11535597B2, “Photoreactive ligands and uses thereof” (The Scripps Research Institute, priority 2017, dated 2022).

Key:
[1] = molecular target: T1, PTGR2 (Homo sapiens, UniProt Q8N8N7); conditions: only reported inhibitor of PTGR2; read-out: in vitro IC50 (PTGR2); cited from earlier work
[2] = system: proteins in HEK293T cells; test: Gel-based profiling of FFF probe-protein labeling in cells; assay type: binding, human; conditions: 20 μM, 30 min, UV
Experimental: (§1) For gel-based experiments, cells were grown in 6-well plates to ˜90% confluence at the time of treatment. Cells were carefully washed with Dulbecco's phosphate buffered saline (DPBS) and replenished with fresh serum-free media containing indicated FFF probe, and, if applicable, competitors or DMSO vehicle (1 mL). Following incubation at 37° C. for 30 min, cells were directly exposed to 365 nm light for 10 min. For no UV experiments, cells were incubated at 4° C. for 10 min under ambient light. For MS-based experiments, cell labeling was performed in a similar manner as described above. Modifications to this protocol included using isotopically ‘light’ and ‘heavy’ SILAC cells that were grown to near complete confluence prior to treatment in 10 cm plates. […]
(§2) Cells pellets were lysed in cold DPBS (100-500 µL) using a Branson Sonifier probe sonicator (10 pulses, 30% duty cycle, output setting=4). […] Protein concentration was determined using the DC Protein Assay (Bio-Rad) and absorbance read using a Tecan, Infinite F500 plate reader following manufacturer's instructions. […]
(§3) Proteomes from treated cells were diluted to 1 mg/mL. […] Proteins (25 µg total protein loaded per gel lane) were resolved using SDS-PAGE (10% acrylamide) and visualized by in-gel fluorescence on a Hitachi FMBIO-II or a Bio-Rad ChemiDoc™ MP flatbed fluorescence scanner. […]

[3] = molecular target: T1, PTGR2; test: In vitro LCMS-based activity assay for PTGR2 (15-keto-PGE2 reductase activity); assay type: biochemical
Experimental: Aliquots (1 μL) of test compounds dissolved in DMSO were transferred to 1.5 mL eppendorf tubes followed by addition of recombinant human PTGR2 (44 μL, 200 nM final concentration) in freshly prepared reaction buffer (Tris Buffer, 1 mM EDTA, 50 μM TCEP, 300 μM NADPH). The resulting mixture was vortexed and then incubated at 37° C. for 20 min. Next, a 5 μL solution of 15-keto-PGE2 substrate (20 μM final concentration) in reaction buffer was added and the reaction was allowed to proceed for 30 min at 37° C. Reactions were quenched by the addition of 0.5% AcOH in ethyl acetate (800 μL), water (300 μL) and 100 μL of internal standard PGE2-d4 (30 pmol/sample) dissolved in 1:1 methanol/water. Phases were separated by centrifugation and the organic layer was collected and dried under a stream of N2, then stored at −80° C. until analysis. Directly prior to analysis, samples were reconstituted in 100 μL of MeCN:H2O (1:1, v/v) and analyzed by LC/MS/MS. All conditions were performed in triplicate and repeated at least three independent times.
The following MS parameters were used to measure the indicated metabolites by MRM (precursor ion, product ion, collision energy, polarity): PGE2-d4 (355, 275, 18), 13,14-dihydro-15-keto-PGE2 (351, 333, 18) and 15-keto-PGE2 (349, 161, 20). 15-keto-PGE2 and 13,14-dihydro-15-keto-PGE2 levels were quantified by determining peak areas in relation to internal standard PGE2-d4. Non-deuterated 15-keto-PGE2 and 13,14-dihydro-15-keto-PGE2 standards were used to confirm retention time and fragmentation.
All data fitting and statistical analysis performed using GraphPad Prism version 6.00 for Windows, GraphPad Software, La Jolla Calif. USA, www.graphpad.com. Statistical values including the exact n and statistical significance are also reported. Probe binding blockade and PTGR2 inhibition curves are plotted as mean±SD (n=3 or 4 per group) for a representative biological replicate using a variable slope (four parameter) non-linear fit. Gene expression data are presented as mean±SD (n=3 per group). HSC5 metabolite data are shown as mean±SD (n=3 per group). Statistical significance was defined as P<0.05 and determined by 2-tailed Student t tests, or two-way ANOVA with Bonferroni's post-tests.

[4] = molecular target: T1, PTGR2; test: Gel-based competitor blockade of FFF 8 labeling of recombinantly expressed FLAG-tagged PTGR2 in HEK293T cells; assay type: binding
Experimental: as §1, §2, §3

[5] = molecular target: T1, PTGR2; test: PPARγ luciferase reporter assay in PTGR2-transfected HEK293T cells (15-keto-PGE2-dependent); assay type: cell-based; conditions: cells recombinantly expressing PTGR2
Experimental: (§4) HEK293T cells were transiently co-transfected using Polyethylenimine (Sigma) with a UAS-Luciferase reporter and a vector expressing the heterologous GAL4 DNA binding domain (DBD) or a GAL4 DNA binding domain::PPARγ ligand binding domain (LBD) chimeric protein, and full-length PTGR2. 24 hr after transfection, cells were treated either with vehicle (DMSO), 15k-PGE2 (20 μM), or fragment compounds. Rosiglitazone (2 μM), a synthetic PPARγ ligand, was used as control. 16 hr after incubation, cells were lysed in Cell Culture Lysis Reagent (Promega) and luciferase activity measured using the Luciferase Assay System (Promega).

[6] = molecular target: T2, PPARγ (Homo sapiens, UniProt P37231); test: GAL4-PPARγ luciferase reporter assay with empty control vector in HEK293T cells; assay type: cell-based; conditions: GAL4-PPARγ luciferase reporter and empty control vector
T2 construct: expressed in transfected cells; host or cells: HEK293T
T2 sequence (P37231 238-503 limits assumed): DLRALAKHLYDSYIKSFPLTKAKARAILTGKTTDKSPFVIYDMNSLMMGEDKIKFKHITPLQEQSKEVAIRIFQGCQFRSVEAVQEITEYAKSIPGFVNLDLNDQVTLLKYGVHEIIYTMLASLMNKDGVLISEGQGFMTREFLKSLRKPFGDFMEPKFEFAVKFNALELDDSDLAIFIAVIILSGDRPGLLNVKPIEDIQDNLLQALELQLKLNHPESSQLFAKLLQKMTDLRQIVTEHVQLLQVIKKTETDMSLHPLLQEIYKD
Experimental: as §4

T1 sequence (Q8N8N7 whole entry): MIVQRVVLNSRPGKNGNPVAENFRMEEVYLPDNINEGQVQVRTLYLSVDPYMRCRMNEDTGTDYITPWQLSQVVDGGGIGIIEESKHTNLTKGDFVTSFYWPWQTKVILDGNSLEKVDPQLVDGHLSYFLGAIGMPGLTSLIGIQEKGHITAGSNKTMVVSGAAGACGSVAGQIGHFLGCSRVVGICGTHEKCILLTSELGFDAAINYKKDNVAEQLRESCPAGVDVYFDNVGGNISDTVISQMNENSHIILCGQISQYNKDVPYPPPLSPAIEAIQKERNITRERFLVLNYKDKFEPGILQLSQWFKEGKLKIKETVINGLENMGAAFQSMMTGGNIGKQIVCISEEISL

For `COc1ccc2c(c1)c(CC(=O)O)c(C)n2C(=O)c1ccc(Cl)cc1` [indomethacin], the IC50 [1] is listed as roughly 200 µM.

With `C#CCCC1(CCC(=O)NC)N=N1` [probe 1, 3-(3-(But-3-yn-1-yl)-3H-diazirin-3-yl)-N-methylpropanamide] the “protein labeling in HEK293T cells (in-gel fluorescence)” value [2] was “much less protein labeling”.

With `COc1ccccc1C1CCN(S(=O)(=O)Cc2ccccc2)CC1` [Compound 23, 1-(Benzylsulfonyl)-4-(2-methoxyphenyl)piperidine] the “effect on 15-keto-PGE2 reductase (catalytic) activity of recombinant PTGR2” value [3] was “did not affect”, the “competitor blockade of FFF 8 labeling of recombinant PTGR2 (gel)” value [4] was “did not affect” and the “15-keto-PGE2-dependent PPARγ transcriptional activity” value [5] was “no effect”. The “direct modulation of PPARγ transcriptional activity” value [6] was “Neither 22 nor 23 directly modulated”.
